This passage reports IC50 cell viability results from the supplement of paper PMC12137928.

Each structure is given as a SMILES string. Structures can show the parent of a compound that is named as a salt.

The assay has as its system HCT116. To be noted: 72 h. A digest of the protocol: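 HCT116 cells were plated at 250 per well in 1536-well plates and allowed 5 h to attach. CellTiter-Glo luminescence was normalized to vehicle as 0% and positive control as -100%, followed by pattern correction. Four-parameter Hill fits provided IC50 and maximal efficacy.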

As to `N[C@H](Cc1c[nH]cn1)C(=O)O` [D-HISTIDINE], the IC50 cell viability (ICRF193 0 nM) was above 45.8 µM and the IC50 cell viability (ICRF193 200 nM) was above 45.8 µM.
`CCCCC(CC)CN1CN(CC(CC)CCCC)CC(C)(N)C1` (centres undefined) [Hexetidine]: the IC50 cell viability (ICRF193 0 nM) was above 45.8 µM and the IC50 cell viability (ICRF193 200 nM) is above 45.8 µM.
`CC(=O)O[C@]1(C(C)=O)CC[C@H]2[C@@H]3C[C@H](C)C4=CC(=O)CC[C@]4(C)[C@H]3CC[C@@]21C` [Medroxyprogesterone acetate] displayed an IC50 cell viability (ICRF193 0 nM) above 45.8 µM and an IC50 cell viability (ICRF193 200 nM) above 45.8 µM.
For the compound `CN(C)CCN(Cc1ccsc1)c1ccccn1` [Thenyldiamine], the IC50 cell viability was above 45.8 µM (ICRF193 0 nM) and above 45.8 µM (ICRF193 200 nM).
With `CC[C@H](C)[C@@H]1NC(=O)[C@H](Cc2ccc(O)cc2)NC(=O)[C@@H](N)CSSC[C@@H](C(=O)N2CCC[C@H]2C(=O)N[C@@H](CC(C)C)C(=O)NCC(N)=O)NC(=O)[C@H](CC(N)=O)NC(=O)[C@H](CCC(N)=O)NC1=O` [Oxytocin], the IC50 cell viability runs as follows: (ICRF193 0 nM) above 45.8 µM; (ICRF193 200 nM) above 45.8 µM.
Turning to `CN(C)CC(c1ccc(O)cc1)C1(O)CCCCC1` (centres undefined) [DESVENLAFAXINE SUCCINATE], the IC50 cell viability was above 45.8 µM (ICRF193 0 nM) and above 45.8 µM (ICRF193 200 nM).
`NS(=O)(=O)c1cc(C(=O)NN2C[C@@H]3[C@H]4CC[C@H](C4)[C@@H]3C2)ccc1Cl` [Tripamide]: the IC50 cell viability reads like this: (ICRF193 0 nM) above 45.8 µM; (ICRF193 200 nM) above 45.8 µM.
Turning to `C[C@H](CCC(=O)O)[C@H]1CC[C@H]2[C@@H]3C(=O)C[C@@H]4CC(=O)CC[C@]4(C)[C@H]3CC(=O)[C@]12C` [Dehydrocholic acid], the IC50 cell viability was above 45.8 µM (ICRF193 0 nM) and above 45.8 µM (ICRF193 200 nM).
For `CCCCC/C=C/C/C=C/CCCCCCCC(=O)O` [9(E),12(E)-Octadecadienoic acid], the IC50 cell viability runs as follows: (ICRF193 0 nM) above 45.8 µM; (ICRF193 200 nM) above 45.8 µM.
`O=S(=O)(O)CCCS(=O)(=O)O` [1,3-Propanedisulfonic acid disodium salt]: the IC50 cell viability runs as follows: (ICRF193 0 nM) above 45.8 µM; (ICRF193 200 nM) above 45.8 µM.
Consider `CCCCCCCCCCCC(=O)OCC(O)CO` (centres undefined) [GLYCERYL LAURATE], for which the IC50 cell viability by setting is: (ICRF193 0 nM) above 45.8 µM; (ICRF193 200 nM) above 45.8 µM.
Regarding `NC(=O)CN1CCCC1=O` [Piracetam], the IC50 cell viability runs as follows: (ICRF193 0 nM) above 45.8 µM; (ICRF193 200 nM) above 45.8 µM.
As to `CN(C)[C@@H]1C(O)=C(C(=O)NCNCCCC[C@H](N)C(=O)O)C(=O)[C@@]2(O)C(O)=C3C(=O)c4c(O)cccc4[C@@](C)(O)[C@H]3C[C@@H]12` [Lymecycline], the IC50 cell viability by setting is: (ICRF193 0 nM) above 45.8 µM; (ICRF193 200 nM) above 45.8 µM.
For the compound `CC(C)=CCC/C(C)=C/CC/C(C)=C/C(=O)OCC(=O)[C@@]1(O)CC[C@H]2[C@@H]3CCC4=CC(=O)C=C[C@]4(C)[C@H]3[C@@H](O)C[C@@]21C` [Prednisolone farnesylate], the IC50 cell viability is, setting by setting: (ICRF193 0 nM) above 45.8 µM; (ICRF193 200 nM) above 45.8 µM.
Turning to `CC(=O)c1ccc2c(c1)N(CCCN(C)C)c1ccccc1S2` [Acetopromazine maleate], the IC50 cell viability reads like this: (ICRF193 0 nM) above 45.8 µM; (ICRF193 200 nM) above 45.8 µM.
Consider `O=C(O)/C=C(\CC(=O)O)C(=O)O` [trans-Aconitic acid], for which the IC50 cell viability by setting is: (ICRF193 0 nM) above 45.8 µM; (ICRF193 200 nM) above 45.8 µM.
For `Nc1ncnc2c1ncn2[C@@H]1O[C@H](COP(=O)(O)OP(=O)(O)OP(=O)(O)O)[C@@H](O)[C@H]1O` [ATP (disodium salt)], the IC50 cell viability is, setting by setting: (ICRF193 0 nM) above 45.8 µM; (ICRF193 200 nM) above 45.8 µM.
For `COC(=O)C(c1ccccc1)C1CCCCN1` (centres undefined) [METHYLPHENIDATE HYDROCHLORIDE], the IC50 cell viability is above 45.8 µM (ICRF193 0 nM) and above 45.8 µM (ICRF193 200 nM).
Consider `CC(C)(CO)[C@@H](O)C(=O)NCCCC(=O)O` [Calcium hopantenate], for which the IC50 cell viability reads like this: (ICRF193 0 nM) above 45.8 µM; (ICRF193 200 nM) above 45.8 µM.
With `c1ccc2sc(SN3CCOCC3)nc2c1` [N-Oxydiethylenebenzothiazole-2-sulfenamide], the IC50 cell viability is, setting by setting: (ICRF193 0 nM) above 45.8 µM; (ICRF193 200 nM) above 45.8 µM.
For `CCOC(=O)Oc1ccc(CCNC(=O)[C@H](CCSC)NC(C)=O)cc1OC(=O)OCC` [Docarpamine], the IC50 cell viability by setting is: (ICRF193 0 nM) above 45.8 µM; (ICRF193 200 nM) above 45.8 µM.
For the compound `CCN1CCCC1=O` [1-Ethyl-2-pyrrolidinone], the IC50 cell viability is, setting by setting: (ICRF193 0 nM) above 45.8 µM; (ICRF193 200 nM) above 45.8 µM.
In the case of `COc1cc(OC)cc(OC)c1` [1,3,5-Trimethoxybenzene], the IC50 cell viability runs as follows: (ICRF193 0 nM) above 45.8 µM; (ICRF193 200 nM) above 45.8 µM.
Regarding `Cc1ncc([N+](=O)[O-])n1CCO` [Metronidazole], the IC50 cell viability was above 45.8 µM (ICRF193 0 nM) and above 45.8 µM (ICRF193 200 nM).
Consider `Cc1nc(NS(=O)(=O)c2ccc(N)cc2)nc(C)c1Br` [Sulfabromomethazine], for which the IC50 cell viability is, setting by setting: (ICRF193 0 nM) above 45.8 µM; (ICRF193 200 nM) above 45.8 µM.
For `CC(C)OC(=O)C(C(=O)OC(C)C)=C1SC=CS1` [Malotilate], the IC50 cell viability is above 45.8 µM (ICRF193 0 nM) and above 45.8 µM (ICRF193 200 nM).
On to `O=c1ccc2cc(O[C@@H]3O[C@H](CO)[C@@H](O)[C@H](O)[C@H]3O)c(O)cc2o1` [Esculin hydrate], for which the IC50 cell viability runs as follows: (ICRF193 0 nM) above 45.8 µM; (ICRF193 200 nM) above 45.8 µM.
